Test results taken from patent EP0640600A1, “Heterocyclylbenzoheterocycles” (BAYER AG, priority 1993, dated 1995).

What was measured:
Unkräuter = assay: Post-emergence test, herbicidal action on weeds; format: in vivo; details: test plants 5 - 15 cm high sprayed, damage rated after three weeks vs untreated control, application rate not given
From the text: (§1) Lösungsmittel: 5 Gewichtsteile Aceton Emulgator: 1 Gewichtsteil Alkylarylpolyglykolether Zur Herstellung einer zweckmäßigen Wirkstoffzubereitung vermischt man 1 Gewichtsteil Wirkstoff mit der angegebenen Menge Lösungsmittel, gibt die angegebene Menge Emulgator zu und verdünnt das Konzentrat mit Wasser auf die gewünschte Konzentration.
(§2) Mit der Wirkstoffzubereitung spritzt man Testpflanzen, welche eine Höhe von 5 - 15 cm haben so, daß die jeweils gewünschten Wirkstoffmengen pro Flächeneinheit ausgebracht werden. Nach drei Wochen wird der Schädigungsgrad der Pflanzen bonitiert in % Schädigung im Vergleich zur Entwicklung der unbehandelten Kontrolle.

[1] = system: Kulturpflanzen, wie z.B. Weizen und Soja; details: in vivo
From the text: as §1, §2

CCCN1C(=O)COc2cc(F)c(-n3c(=O)nc(OCC)n(C)c3=O)cc21 [Beispiel 2, 3-(7-Fluor-3-oxo-4-propyl-1,4-benzoxazin-6-yl)-6-ethoxy-1-methyl-(1H,3H)-1,3,5-triazin-2,4-dion]
Wirkung gegen Unkräuter (Unkräuter): starke Wirkung | Verträglichkeit gegenüber Kulturpflanzen, wie z.B. Weizen und Soja [1]: teilweise guter Verträglichkeit
